Numbered stars: 1 amine (or outer) side, 2 acyl side, 3 side chain; on linkers, the order of the positions; unused ones are H or OH. Square brackets hold non-standard residues; d marks the D form. Side chains are listed from the residue outwards. Peptide text beside a SMILES is read from it. * marks the point of attachment. X2 = O=C(O)CC[C@H](NC(=O)N[C@@H](CCC(=O)N[C@H](CCCN*)C(=O)O)C(=O)O)C(=O)O; X1 = O=C(O)CC[C@H](NC(=O)N[C@@H](CCCCNC(=O)CCCCCCC(=O)*)C(=O)O)C(=O)O; DOTAGA = O=C(O)CN1CCN(CC(=O)O)CCN(C(CCC(=O)*)C(=O)O)CCN(CC(=O)O)CC1; dPhe(4-NH2) = Nc1ccc(C[C@@H](N)C(=O)O)cc1; Phe(4-NH2) = Nc1ccc(C[C@H](N)C(=O)O)cc1; d2Nal = N[C@H](Cc1ccc2ccccc2c1)C(=O)O; Suc = O=C(CCC(=O)[*:2])[*:1]
What was measured:
human serum albumin [1] = biological target: T1, human serum albumin (Homo sapiens, UniProt P02768); assay: Literature HSA binding of the reference substances used to calibrate the HSA column; details: logarithmic K of human serum albumin binding, from the literature HSA%
T1 sequence (P02768 25-609): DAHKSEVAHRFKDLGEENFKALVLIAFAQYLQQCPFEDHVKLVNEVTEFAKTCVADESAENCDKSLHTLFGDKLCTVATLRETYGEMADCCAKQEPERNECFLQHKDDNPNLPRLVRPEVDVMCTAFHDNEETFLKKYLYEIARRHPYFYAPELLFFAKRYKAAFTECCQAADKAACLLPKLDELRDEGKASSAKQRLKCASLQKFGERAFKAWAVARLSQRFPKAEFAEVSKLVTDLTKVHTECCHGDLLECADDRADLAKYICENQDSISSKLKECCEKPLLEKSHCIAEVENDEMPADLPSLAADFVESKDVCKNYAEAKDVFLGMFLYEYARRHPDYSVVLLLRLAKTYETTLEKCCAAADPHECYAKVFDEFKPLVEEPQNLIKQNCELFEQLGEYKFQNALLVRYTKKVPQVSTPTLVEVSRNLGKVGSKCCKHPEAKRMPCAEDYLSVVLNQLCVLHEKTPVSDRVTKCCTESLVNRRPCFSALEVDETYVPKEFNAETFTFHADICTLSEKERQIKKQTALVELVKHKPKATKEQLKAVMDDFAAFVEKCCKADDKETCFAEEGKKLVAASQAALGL
Procedure: (§1) The mobile phase was freshly prepared for each experiment and only used for one day. The column was kept at room temperature and each run was stopped after detection of the signal to reduce the acquisition time. All substances were dissolved in a 0.5mg/ml concentration in 50% 2-Propanol and 50% 50mM pH 6.9 ammonium acetate buffer. […] All nine reference substances were injected consecutively to establish a non-linear regression with OriginPro 2016G. […] Table 1: Reference substances used for the calibration of the HSA-column.

human serum albumin [2] = biological target: T1, human serum albumin; details: literature value of human serum albumin binding (Valko et al. or Yamazaki et al.); cited from earlier work
[3] = assay type: physicochemical
Procedure: To a volume of 500 µL n-octanol, 0.5 to 1.0 MBq of the radiolabeled PSMA inhibitor in 500 µL PBS (pH = 7.4) was added and rigorously vortexted for 3 min (n = 6). For quantitative phase separation, the mixture was centrifuged at 6,000 g for 5 min (Biofuge 15, Heraus Sepatech, Osterode, Germany).

PSMA [4] = biological target: T2, PSMA (Homo sapiens, UniProt Q04609); assay: Internalization of radiolabeled PSMA inhibitors into cells (PMPA blockade); assay type: cell-based; parameters: endogenous in cells; LNCaP is named only for the xenografts; details: 177Lu-labeled inhibitors, 37°C; reference basis of the % not stated
T2 sequence (Q04609 whole entry): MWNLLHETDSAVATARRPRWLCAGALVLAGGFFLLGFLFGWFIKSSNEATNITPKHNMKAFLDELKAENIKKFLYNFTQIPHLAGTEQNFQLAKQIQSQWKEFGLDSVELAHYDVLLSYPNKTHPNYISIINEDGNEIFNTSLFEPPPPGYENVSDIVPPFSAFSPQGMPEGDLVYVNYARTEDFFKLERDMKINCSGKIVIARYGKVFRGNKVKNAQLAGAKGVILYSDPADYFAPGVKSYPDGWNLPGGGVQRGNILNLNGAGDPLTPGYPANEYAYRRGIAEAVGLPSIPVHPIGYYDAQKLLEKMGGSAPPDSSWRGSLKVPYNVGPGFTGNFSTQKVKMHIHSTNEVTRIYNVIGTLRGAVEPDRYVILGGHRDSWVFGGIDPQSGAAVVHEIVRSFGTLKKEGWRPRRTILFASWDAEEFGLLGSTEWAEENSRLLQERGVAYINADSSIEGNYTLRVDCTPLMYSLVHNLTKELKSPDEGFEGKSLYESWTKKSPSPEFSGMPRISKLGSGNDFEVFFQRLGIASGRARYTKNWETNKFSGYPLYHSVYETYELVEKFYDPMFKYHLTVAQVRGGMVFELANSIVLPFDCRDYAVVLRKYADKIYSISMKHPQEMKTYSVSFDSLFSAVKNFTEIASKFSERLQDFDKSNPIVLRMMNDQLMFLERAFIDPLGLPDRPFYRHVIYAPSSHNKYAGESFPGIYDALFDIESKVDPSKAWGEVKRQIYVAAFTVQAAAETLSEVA
Procedure: The ^177Lu-labeled compounds, for in vitro studies, were prepared as previously described (Sosabowski, J.K. and S.J. Mather, Conjugation of DOTA-like chelating agents to peptides and radiolabeling with trivalent metallic isotopes. Nat. Protocols, 2006. 1(2): p. 972-976) with minor modifications and used without further purification. In short, to a reaction volume of 10 µL 1.0 M NH4OAc buffer pH = 5.9 was added 0.75 to 1.0 nmol tracer (7.5 to 10 µL), 10 to 40 MBq ^177LuCl3 (Specific Activity (AS) > 3000 GBq/mg, 740 MBq/mL, 0.04 M HCl, ITG, Garching, Germany) and finally filled up to 100 µL with trace-pure Water (Merck, Darmstadt, Germany). The reaction mixture was heated for 30 min at 95°C and the radiochemical purity was determined using Radio-TLC.
[…] Each well was treated with either 25 µL of either DMEM-F12 (5% BSA) or a 100 µM PMPA solution for blockade. Next, 25 µL of the respective ^68Ga-and ^177Lu-labeled PSMA inhibitors (2.0 nM / 5.0 nM) was added and the cells incubated at 37°C for 5, 15, 30 and 60 min, respectively. The experiment was terminated by placing the 24-well plate on ice for 3 min and consecutive removal of the medium. Each well was rinsed with 250 µL HBSS and the fractions from these first two steps combined, representing the amount of free radioligand. Removal of surface bound activity was accomplished by incubation of the cells with 250 µL of ice-cold PMPA (10 µM in PBS) solution for 5 min and rinsed again with another 250 µL of ice-cold PBS. The internalized activity was determined by incubation of the cells in 250 µL 1.0 M NaOH and the combination with the fraction of a subsequent wash step with 250 µL 1.0 M NaOH. Each experiment (control and blockade) was performed in triplicate for each time point. Free, surface bound and internalized activity was quantified in a γ-counter.

[5] = biological target: T3, human serum albumin (HSA) (Homo sapiens, UniProt P02768); assay type: in vitro ADME
T3 construct: purchased Daicel Chemical Industries, purchased from Chiral Technologies Europe (France)
T3 sequence (P02768 25-609): as the sequence (P02768 25-609) above
From the text: The Fmoc-(9-fluorenylmethoxycarbonyl-) and all other protected amino acid analogs were purchased from Bachem (Bubendorf, Switzerland) or Iris Biotech (Marktredwitz, Germany). […] The tritylchloride polystyrene (TCP) resin was obtained from PepChem (Tubingen, Germany). Chematech (Dijon, France) delivered the chelator DOTAGA-anhydride. All necessary solvents and other organic reagents were purchased from either Alfa Aesar (Karlsruhe, Germany), Sigma-Aldrich (Munich, Germany) or VWR (Darmstadt, Germany). Solid phase synthesis of the peptides was carried out by manual operation using an Intelli-Mixer syringe shaker (Neolab, Heidelberg, Germany). […] Analysis of the peptides was performed by applying different gradients of 0.1% (v/v) trifluoroacetic acid (TFA) in H2O (solvent A) and 0.1% TFA (v/v) in acetonitrile (MeCN) (solvent B) with a constant flow of 1 mL/min (specific gradients are cited in the text). […] Human serum albumin (HSA) binding was determined using a Chiralpak HSA 50 x 3 mm 5µm Analytical Column connected to a Chiralpak HSA 10 x 3 mm 5µm Guard Cartridge (Daicel Chemical Industries) purchased from Chiral Technologies Europe (France). Nonlinear regression for the HSA binding was performed using OriginPro 2016G. Both retention times tR as well as the capacity factors K' are cited in the text. […] Radioactivity was detected through connection of the outlet of the UV-photometer to a Nal(TI) well-type scintillation counter from EG&G Ortec (Munich, Germany). […] ESI-mass spectra were acquired on an expression^L CMS mass spectrometer (Advion Ltd., Harlow, UK) and on a Varian 500-MS IT mass spectrometer (Agilent Technologies, Santa Clara, USA). For the HSA binding experiment a Chiralpak HSA 50 x 3 mm 5µm Analytical Column, (Daicel Chemical Industries, LTD) connected to a Chiralpak HSA 10 x 3 mm 5µm Guard Cartridge (Daicel Chemical Industries; Chiral Technologies Europe) was used.
as §1

PSMA [6] = biological target: T2, PSMA; assay: Determination of IC50: competitive binding against ([125I]I-BA)KuE on cells; parameters: endogenous in cells; LNCaP is named only for the xenografts; details: natLu complexes; displacement of ([125I]I-BA)KuE, 60 min on ice, HBSS (1% BSA)
Procedure: The corresponding ^natLu^III-complexes were prepared from a 2 mM aqueous solution of the PSMA inhibitor with a 2.5 molar excess of LuCl3 (20 mM solution), heated to 95 °C for 30 min. After cooling, the ^natLu^III-chelate formation was confirmed using HPLC and MS. […] Calculated monoisotopic mass (C67H92N11O23 Lu) = 1,593.6 found: m/z = 1,595.0 [M+H]^+, 798.2 [M+2H]^2+. [^natLu]DOTAGA-(4-NH2)f-y-nal-k-KuE ([^natLu]PSMA-5): HPLC (10 to 60% B in 15 min.): tR = 9.0 min K' = 3.5. Calculated monoisotopic mass (C76H102N13O24 Lu) = 1,755.7 found: m/z = 1,756.4 [M+H]^+, 879.0 [M+2H]^2+. [^natLu]DOTAGA-(4-NH2)F-y-nal-k-KuE ([^natLu]PSMA-6): HPLC (10 to 60% B in 15 min.): tR = 9.1 min K' = 3.6. Calculated monoisotopic mass (C76H102N13O24 Lu) = 1,755.7 found: m/z = 1,756.6 [M+H]^+, 878.8 [M+2H]^2+. [^natLu]DOTAGA-y-nal-k(Suc-(HO-δ-orn-γ-EuE))-OH ([^natLu]PSMA-7): HPLC (10 to 60 % B in 15 min): tR = 7.8 min K' = 2.9. Calculated monoisotopic mass (C67H89N12O26 Lu): 1,652.5 found: m/z = 1,653.9 [M+H]^+. [^natLu]DOTAGA-(4-NH2)f-y-nal-k(Suc-(HO-δ-orn-γ-EuE))-OH ([^natLu]PSMA-8): HPLC (10 to 60 % B in 15 min): tR = 7.3 min K' = 2.7. Calculated monoisotopic mass (C67H99N14O27Lu): 1,814.6 found: m/z = 1,815.9 [M+H]^+, 908.3 [M+2H]^2+. [^natLu]DOTAGA-(4-NH2)F-y-nal-k(Suc-(HO-δ-orn-γ-EuE))-OH ([^natLu]PSMA-9): HPLC (10 to 60 % B in 15 min): tR = 7.2 min K' = 2.6. Calculated monoisotopic mass (C67H99N14O27Lu): 1,814.6 found: m/z = 1,815.6 [M+H]^+, 908.3 [M+2H]^2+. [^natLu]DOTAGA-y-nal-k(Glut-(l-f)-KuE) ([^natLu]PSMA-10): HPLC (25 to 55% B in 15 min): tR = 10.6 min K' = 4.9. Calculated monoisotopic mass (C73H94IN12O24Lu): 1,825.5 found: m/z = 1,826.5 [M+H]^+, 913.8 [M+2H]^2+. [^natLu]DOTAGA-(4-NH2)f-y-nal-k(Glut-(l-f)-KuE) ([^natLu]PSMA-11): HPLC (10 to 60% B in 20 min): tR = 9.7 min K' = 3.9. Calculated monoisotopic mass (C82H104IN14O25Lu): 1,986.6 found: m/z = 1,987.5 [M+H]^+, 994.3 [M+2H]^2+.
The reaction solution was incubated for 10 min at RT, loaded on a cartridge and rinsed with 10 mL water (C18 Sep Pak Plus cartridge, preconditioned with 10 mL MeOH and 10 mL water). After elution with 2.0 mL of a 1:1 mix (v/v) of EtOH/MeCN, the radioactive solution was evaporated to dryness under a gentle nitrogen stream and treated with 200 µL TFA for 30 min with subsequent evaporation of TFA.
After removal of the culture medium, the cells were treated once with 500 µL of HBSS (Hank's balanced salt solution, Biochrom, Berlin, Germany, with addition of 1% bovine serum albumin (BSA)) and left 15 min on ice for equilibration in 200 µL HBSS (1% BSA). […] All experiments were performed at least three times for each concentration. After 60 min incubation on ice, the experiment was terminated by removal of the medium and consecutive rinsing with 200 µL of HBSS. The media of both steps were combined in one fraction and represent the amount of free radioligand. Afterwards, the cells were lysed with 250 µL of 1.0 M NaOH and united with the 200 µL HBSS of the following wash step. Quantification of bound and free radioligand was accomplished in a γ-counter.

Compound | Log K HSA (human serum albumin [1]) | Lit. HSA% (human serum albumin [2]) [%] | logP [3] | Internalization [%] (PSMA [4]) | HSA [%] [5] [%] | IC50 (PSMA [6]) [nM]
Nc1ccccc1 [Aniline] | -0.79 | 14.06 |  |  |  | 
CCCN(CCC)S(=O)(=O)c1ccc(C(=O)O)cc1 [Probenecid] |  | 95.00 |  |  |  | 
O=C(O)CC[C@H](NC(=O)N[C@@H](CCCCNC(=O)CCCCCCC(=O)NCCCC[C@@H](NC(=O)[C@@H](Cc1ccccc1)NC(=O)[C@@H](Cc1ccc(O)c(I)c1)NC(=O)CCC(C(=O)O)N1CCN(CC(=O)O)CCN(CC(=O)O)CCN(CC(=O)O)CC1)C(=O)O)C(=O)O)C(=O)O (stereo partly drawn) [[^nat/177Lu]PSMA-1, DOTAGA-(l-y)-f-k-KuE, metal not drawn, reference compound] |  |  | -4.12 ± 0.1 | 75.5 ± 1.6 | 78.6 | 
Nc1ccc(C[C@@H](NC(=O)CCC(C(=O)O)N2CCN(CC(=O)O)CCN(CC(=O)O)CCN(CC(=O)O)CC2)C(=O)N[C@H](Cc2ccc(O)cc2)C(=O)N[C@H](Cc2ccc3ccccc3c2)C(=O)N[C@H](CCCCNC(=O)CCCCCCC(=O)NCCCC[C@H](NC(=O)N[C@@H](CCC(=O)O)C(=O)O)C(=O)O)C(=O)O)cc1 (stereo partly shown) [[^nat/177Lu]PSMA-5, DOTAGA-(4-NH2)f-y-nal-k-KuE, metal not drawn] ({DOTAGA}-[dPhe(4-NH2)][dY][d2Nal][dK](X1)-OH) |  |  | -4.11 ± 0.06 | 111.3 ± 11.1 |  | 5.8 ± 1
O=C(O)CC[C@H](NC(=O)N[C@@H](CCC(=O)N[C@H](CCCNC(=O)CCC(=O)NCCCC[C@@H](NC(=O)[C@@H](Cc1ccc2ccccc2c1)NC(=O)[C@@H](Cc1ccc(O)cc1)NC(=O)CCC(C(=O)O)N1CCN(CC(=O)O)CCN(CC(=O)O)CCN(CC(=O)O)CC1)C(=O)O)C(=O)O)C(=O)O)C(=O)O (stereo partly shown) [[^nat/177Lu]PSMA-7, DOTAGA-y-nal-k(Suc-(HO-δ-orn-γ-EuE))-OH, metal not drawn, reference compound] |  |  |  | 216.2 ± 9.2 |  | 3.1 ± 1
Nc1ccc(C[C@@H](NC(=O)CCC(C(=O)O)N2CCN(CC(=O)O)CCN(CC(=O)O)CCN(CC(=O)O)CC2)C(=O)N[C@H](Cc2ccc(O)cc2)C(=O)N[C@H](Cc2ccc3ccccc3c2)C(=O)N[C@H](CCCCNC(=O)CCC(=O)NCCC[C@@H](NC(=O)CC[C@H](NC(=O)N[C@@H](CCC(=O)O)C(=O)O)C(=O)O)C(=O)O)C(=O)O)cc1 (stereo partly shown) [[^nat/177Lu]PSMA-8, DOTAGA-(4-NH2)f-y-nal-k(Suc-(HO-δ-orn-γ-EuE))-OH, metal not drawn] ({DOTAGA}-[dPhe(4-NH2)][dY][d2Nal][dK]([Suc-X2])-OH) |  |  | -4.02 ± 0,25 | 207.3 ± 8.5 |  | 2.5 ± 0.6
Nc1ccc(C[C@H](NC(=O)CCC(C(=O)O)N2CCN(CC(=O)O)CCN(CC(=O)O)CCN(CC(=O)O)CC2)C(=O)N[C@H](Cc2ccc(O)cc2)C(=O)N[C@H](Cc2ccc3ccccc3c2)C(=O)N[C@H](CCCCNC(=O)CCC(=O)NCCC[C@@H](NC(=O)CC[C@H](NC(=O)N[C@@H](CCC(=O)O)C(=O)O)C(=O)O)C(=O)O)C(=O)O)cc1 (stereo partly shown) [[^nat/177Lu]PSMA-9, DOTAGA-(4-NH2)F-y-nal-k(Suc-(HO-δ-orn-γ-EuE))-OH, metal not drawn] ({DOTAGA}-[Phe(4-NH2)][dY][d2Nal][dK]([Suc-X2])-OH) |  |  | -4.01 ± 0.11 |  |  | 2.5 ± 0.6

From patent publication EP3494999A1, “PSMA LIGANDS FOR IMAGING AND ENDORADIOTHERAPY” (Technische Universität München, priority 2017, dated 2019)
